Assay results: paper PMC8121805, “Discovery of first-in-class inhibitors of ASH1L histone methyltransferase with anti-leukemic activity” (Nature Communications, 2021)
Values joined by “and” are separate entries in the source; they are usually repeats but may differ in a detail not shown here. Equal entries are not always repeated.

Tests used:
Type in all cases: cell-based, human
[1] = tested on: MV4;11 cells; assay: MTT cell viability assay; conditions: for MV4;11 % activity: Fig S7a
Protocol: (§1) FBS and 1% penicillin/streptomycin. […] Media was changed on day 3 or 4 and compounds were resupplied. […] Cell suspensions (100 μL) were transferred to the 96-well plates for each sample in quadruplicate at the time of media change. At day 7, 10 µL of MTT reagent (M6494, Molecular Probes™) was added to each well of the 96 well plate and incubated at 37 °C for 4 h. The formazan was then solubilized by adding 100 µL acidified 10% SDS solution and incubated at 37 °C overnight. Plates were read for absorbance at 570 nm using a PHERAstar BMG microplate reader. The experiments were performed two times in quadruplicates with calculation of mean and SD for each condition. Data were analyzed in Prism 8.0.0 to obtain GI50 values.
(§2) Supplementary Figure 7. […] (a)
(§3) Titration curves from the MTT cell viability assay performed after 4, 7, and 11 (or 10) days of
(§4) Titration curves from the MTT cell viability assay performed after 7 days of treatment of KOPN8 ,
(§5) MOLM13 and MV4;11 cell lines harboring MLL1 translocation (MLL1-r) or K562 cell line (non-
(§6) Representative graphs are shown
(§7) from two independent MTT experiments performed for each cell line.

[2] = tested on: MOLM13 cells; assay: MTT cell viability assay; conditions: Fig S7b
Protocol: as §1, §2, §3, §4, §5, §6, §7

[3] = tested on: KOPN8 cells; assay: MTT cell viability assay; conditions: Fig S7a
Protocol: (§8) Human leukemia cells K562, MV4;11 and RS4;11 (purchased from ATCC) and KOPN8, MOLM13 (purchased from DSMZ) were cultured in RPMI 1640 (Invitrogen) supplemented with 10% heat inactivated (h.i.) FBS and 1% penicillin/streptomycin (Invitrogen). SET2 cells (purchased from DSMZ) were cultured in RPMI 1640 supplemented with 20% h.i. FBS and 1% penicillin/streptomycin. Cells were plated at 1 × 10^5 to 2 × 10^5 cells/mL depending on cell line and treated with 0.25% DMSO or varying concentrations of compounds and incubated at 37 °C, 5% CO2 incubator for 7 days. Media was changed on day 3 or 4 and compounds were resupplied. […] Cell suspensions (100 μL) were transferred to the 96-well plates for each sample in quadruplicate at the time of media change. At day 7, 10 µL of MTT reagent (M6494, Molecular Probes™) was added to each well of the 96 well plate and incubated at 37 °C for 4 h. The formazan was then solubilized by adding 100 µL acidified 10% SDS solution and incubated at 37 °C overnight. Plates were read for absorbance at 570 nm using a PHERAstar BMG microplate reader. The experiments were performed two times in quadruplicates with calculation of mean and SD for each condition. Data were analyzed in Prism 8.0.0 to obtain GI50 values.
as §2, §3, §4, §5, §6
(§9) from two independent MTT experiments performed for each cell line. GI50 values correspond to […]

[4] = tested on: K562 cells; assay: MTT cell viability assay; conditions: for % activity: Fig S7b
Protocol: as §8, §2, §3, §4, §5, §6, §9

[5] = tested on: MLL leukemia cells (MV4;11, MOLM13, KOPN8, RS4;11); assay: MTT cell viability assay, MLL leukemia cells as a group; conditions: Homo sapiens, MLL leukemia cells
Protocol: as §8
Supplementary Figure 4. Cell viability assay for AS-6 in MLL leukemia cell lines. Titration curves from the MTT cell viability assay performed after 7 days of treatment of human MLL1- […]
replicates. Representative graphs are shown from two independent MTT experiments performed […]
as §2
Titration curves from the MTT cell viability assay performed after 4, 7, and 11 (or 10) days of […]
Titration curves from the MTT cell viability assay performed after 7 days of treatment of KOPN8 , MOLM13 and MV4;11 cell lines harboring MLL1 translocation (MLL1-r) or K562 cell line (non- […]
Representative graphs are shown from two independent MTT experiments performed for each cell line. GI50 values correspond to […]

## NC(=S)c1cccc(-c2cn(C3CCN(S(=O)(=O)C(F)(F)F)CC3)c3cc(CNC(=O)C4CNC4)ccc23)c1 [AS-85]
[1]; log[AS-85] -4.60206, d4
  MV4;11 % activity: 15.9329% and 16.3522% and 18.0892% and 16.4121%
[1]; log[AS-85] -4.60206, d7
  MV4;11 % activity: 5.045% and 5.128% and 5.211%
[1]; log[AS-85] -4.60206, d11
  MV4;11 % activity: 1.161% and 1.032% and 1.118%
[1]; log[AS-85] -4.90309, d4
  MV4;11 % activity: 70.8595% and 67.0859% and 71.758% and 64.1509%
[1]; log[AS-85] -4.90309, d7
  MV4;11 % activity: 25.0571% and 25.9705% and 23.8115% and 22.3998%
[1]; log[AS-85] -4.90309, d11
  MV4;11 % activity: 9.6743% and 10.0613% and 9.029% and 8.943%
[1]; log[AS-85] -5.20412, d4
  MV4;11 % activity: 102.965% and 99.1914% and 99.9102% and 86.1336%
[1]; log[AS-85] -5.20412, d7
  MV4;11 % activity: 53.1243% and 51.7127% and 52.7922% and 54.6191%
[1]; log[AS-85] -5.20412, d11
  MV4;11 % activity: 37.1063% and 36.8053% and 36.9343% and 41.621%
[1]; log[AS-85] -5.50515, d4
  MV4;11 % activity: 92.5427% and 88.3498% and 97.8736% and 88.7691%
[1]; log[AS-85] -5.50515, d7
  MV4;11 % activity: 76.7075% and 69.8983% and 73.8011% and 68.8188%
[1]; log[AS-85] -5.50515, d11
  MV4;11 % activity: 72.8797% and 78.2113% and 64.4953% and 71.1168%
[1]; log[AS-85] -5.80618, d11
  MV4;11 % activity: 77.7384% and 83.5429% and 90.8524%
[1]; log[AS-85] -6.10721, d4
  MV4;11 % activity: 94.4594% and 94.1599% and 94.5792% and 108.955%
[1]; log[AS-85] -6.10721, d7
  MV4;11 % activity: 101.951% and 92.1528% and 106.186% and 104.11%
[1]; log[AS-85] -6.10721, d11
  MV4;11 % activity: 89.8205% and 93.8192% and 105.127% and 95.5821%
[1]; log[AS-85] -6.40824, d4
  MV4;11 % activity: 98.1731% and 105.9% and 87.9305% and 107.996%
[1]; log[AS-85] -6.40824, d7
  MV4;11 % activity: 98.879% and 95.8896% and 100.374% and 104.858%
[1]; log[AS-85] -6.40824, d11
  MV4;11 % activity: 115.404% and 96.872% and 95.3671% and 92.3573%
[1]; Fig S7b, MV4;11, log[AS-85] -5.80618
  % activity: 90.492% and 84.4301% and 90.3259% and 90.8242%
[2]; MOLM-13, log[AS-85] -4.60206
  % activity: 46.6646% and 47.2766% and 46.175% and 47.0318%
[2]; MOLM-13, log[AS-85] -4.90309
  % activity: 81.426% and 94.7674% and 77.6316% and 82.4051%
[2]; MOLM-13, log[AS-85] -5.20412
  % activity: 87.0563% and 95.9914% and 92.6867% and 98.1946%
[2]; MOLM-13, log[AS-85] -5.50515
  % activity: 82.6499% and 85.9547% and 94.1555% and 88.7699%
[2]; MOLM-13, log[AS-85] -5.80618
  % activity: 80.9364% and 84.3635% and 82.1603% and 93.6659%
[2]; MOLM-13, log[AS-85] -6.10721
  % activity: 97.5826% and 103.213% and 93.6659% and 105.539%
[2]; MOLM-13, log[AS-85] -6.40824
  % activity: 70.6548% and 70.0428% and 76.1628% and 72.1236%
[3]; log[AS-85] -4.60206, d4
  KOPN8 % activity: 16.3539% and 14.6687% and 8.541% and 8.847%
[3]; log[AS-85] -4.60206, d7
  KOPN8 % activity: 5.4864%
[3]; log[AS-85] -4.60206, d10
  KOPN8 % activity: 12.6028% and 11.8131% and 12.208%
[3]; log[AS-85] -4.90309, d4
  KOPN8 % activity: 78.3991% and 80.3907% and 79.1651% and 80.3906%
[3]; log[AS-85] -4.90309, d7
  KOPN8 % activity: 47.9023% and 50.2997% and 49.1932% and 51.4062%
[3]; log[AS-85] -4.90309, d10
  KOPN8 % activity: 23.001% and 25.765% and 16.1566% and 29.977%
[3]; log[AS-85] -5.20412, d4
  KOPN8 % activity: 76.2543% and 85.293% and 81.9226% and 91.2677%
[3]; log[AS-85] -5.20412, d7
  KOPN8 % activity: 72.4297% and 74.2739% and 78.5154% and 71.5076%
[3]; log[AS-85] -5.20412, d10
  KOPN8 % activity: 57.6176% and 47.8776% and 61.0398% and 75.3866%
[3]; log[AS-85] -5.50515, d4
  KOPN8 % activity: 81.7694% and 85.9058% and 95.8637% and 96.7828%
[3]; log[AS-85] -5.50515, d7
  KOPN8 % activity: 82.5726% and 92.5311% and 77.2245% and 78.5154%
[3]; log[AS-85] -5.50515, d10
  KOPN8 % activity: 103.817% and 88.6805% and 64.9885% and 80.7832%
[3]; log[AS-85] -5.80618, d4
  KOPN8 % activity: 78.2459% and 90.8081% and 100.766% and 94.0253%
[3]; log[AS-85] -5.80618, d7
  KOPN8 % activity: 80.7284% and 79.9908% and 94.5597% and 75.0115%
[3]; log[AS-85] -5.80618, d10
  KOPN8 % activity: 93.8137% and 85.6532% and 79.9934% and 79.7302%
[3]; log[AS-85] -6.10721, d4
  KOPN8 % activity: 86.825% and 91.4209% and 95.8637% and 91.5741%
[3]; log[AS-85] -6.10721, d7
  KOPN8 % activity: 99.9078% and 107.284% and 86.6298% and 85.5233%
[3]; log[AS-85] -6.10721, d10
  KOPN8 % activity: 118.032% and 101.579% and 87.2326% and 93.1556%
[3]; log[AS-85] -6.40824, d4
  KOPN8 % activity: 98.6212% and 103.37% and 102.911% and 95.0977%
[3]; log[AS-85] -6.40824, d7
  KOPN8 % activity: 100.461% and 105.072% and 99.7234% and 94.7441%
[3]; log[AS-85] -6.40824, d10
  KOPN8 % activity: 81.3096% and 91.971% and 84.7318% and 80.9148%
[4]; K562, log[AS-85] -4.60206
  % activity: 94.8724% and 99.1495% and 96.3791% and 94.0462%
[4]; K562, log[AS-85] -4.90309
  % activity: 126.464% and 120.486% and 116.938% and 123.451%
[4]; K562, log[AS-85] -5.20412
  % activity: 111.154% and 105.225% and 103.767% and 109.259%
[4]; K562, log[AS-85] -5.50515
  % activity: 104.836% and 103.329% and 104.35% and 109.745%
[4]; K562, log[AS-85] -5.80618
  % activity: 94.1434% and 95.2126% and 95.6501% and 103.183%
[4]; K562, log[AS-85] -6.10721
  % activity: 95.2612% and 103.524% and 101.142% and 100.073%
[4]; K562, log[AS-85] -6.40824
  % activity: 94.0462% and 95.8931% and 100.705% and 97.4484%
[4]; leukemia cells without MLL1 translocations
  effect on growth/proliferation of K562 cells: no effect
[5]
  GI50: 5 to 25 µM
